Measured values published in patent publication US8501770B2 (ArQule, Inc., priority 2009, dated 2013).
Where a name gives a salt, the structure may show the parent alone. Read-outs that look alike come from different tables or passages of the source.

Molecular target: Full-length inactive AKT1 (Homo sapiens, UniProt P31749)
Test: Inactive Akt Alpha Screen Assay
Type: biochemical
In short: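 AlphaScreen read-out (excitation 640 nm, emission 570 nm) after 90 min incubation at room temperature in the dark. Signal comes from crosstide phosphorylation by AKT1, which was activated by added PDK1, MAPKAPK2, ATP and lipid vesicles, captured via phospho-AKT substrate antibody and streptavidin beads.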

[1] = values not marked with "*", read-out: Akt1 IC50, (AlphaScreen)
[2] = values not marked with "*": AlphaScreen assay, read-out: Akt1 IC50, (AlphaScreen)
[3] = AlphaScreen assay (values not marked with *), read-out: Akt1 IC50, (AlphaScreen) (μM) (or if marked with “*” HTRF assay)

Chain of Full-length inactive AKT1 (P31749 whole entry): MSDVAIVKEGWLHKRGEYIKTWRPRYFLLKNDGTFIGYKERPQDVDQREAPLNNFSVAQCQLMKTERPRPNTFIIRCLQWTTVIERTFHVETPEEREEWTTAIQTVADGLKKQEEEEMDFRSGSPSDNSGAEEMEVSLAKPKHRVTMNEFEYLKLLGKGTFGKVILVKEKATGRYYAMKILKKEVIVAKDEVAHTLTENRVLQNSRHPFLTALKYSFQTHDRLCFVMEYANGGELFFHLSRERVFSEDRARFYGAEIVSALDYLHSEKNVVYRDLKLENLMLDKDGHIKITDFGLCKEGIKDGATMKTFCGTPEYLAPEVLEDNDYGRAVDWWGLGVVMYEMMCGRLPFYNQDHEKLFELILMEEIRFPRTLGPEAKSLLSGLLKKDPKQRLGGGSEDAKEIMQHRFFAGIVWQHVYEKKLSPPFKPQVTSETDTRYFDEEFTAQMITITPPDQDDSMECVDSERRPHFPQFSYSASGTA

Row | Compound | IC50 [1] | other results
1 | Nc1ncccc1-c1nc2ccc(-c3ccncc3)nc2n1-c1ccc(NC(=O)c2ccccc2)cc1 [Example 256, N-(4-(2-(2-aminopyridin-3-yl)-5-(pyridin-4-yl)-3H-imidazo[4,5-b]pyridin-3-yl)phenyl)benzamide] | 0.019 µM | –
2 | Nc1ncccc1-c1nc2ccc(-c3ccccn3)nc2n1-c1ccc(C2(N)CCC2)cc1 [Example 393, 3-(3-(4-(1-aminocyclobutyl)phenyl)-5-(pyridin-2-yl)-3H-imidazo[4,5-b]pyridin-2-yl)pyridin-2-amine] | 0.0037 µM | –
3 | CCOC(=O)Cc1ccc(-n2c(-c3cccnc3N)nc3ccc(-c4cccc(NC(C)=O)c4)nc32)cc1 [Example 243, ethyl 2-(4-(5-(3-acetamidophenyl)-2-(2-aminopyridin-3-yl)-3H-imidazo[4,5-b]pyridin-3-yl)phenyl)acetate] | 0.32 µM | –
4 | Nc1ncccc1-c1nc2ccc(-c3cccc(C(=O)NCCO)c3)nc2n1-c1ccc(C2(N)CCC2)cc1 [Example 385, 3-(3-(4-(1-aminocyclobutyl)phenyl)-2-(2-aminopyridin-3-yl)-3H-imidazo[4,5-b]pyridin-5-yl)-N-(2-hydroxyethyl)benzamide] | 0.0028 µM | –
5 | Cc1ccc2cc(NC(=O)Cc3ccc(-n4c(-c5cccnc5N)nc5ccc(C)nc54)cc3)ccc2n1 [Example 302, 2-(4-(2-(2-aminopyridin-3-yl)-5-methyl-3H-imidazo[4,5-b]pyridin-3-yl)phenyl)-N-(2-methylquinolin-6-yl)acetamide] | 0.078 µM | –
6 | CCCCS(=O)(=O)NCc1ccc(-n2c(-c3cccnc3N)nc3cc(Br)cnc32)cc1 [Example 153, N-{4-[2-(2-aminopyridin-3-yl)-6-bromo-3H-imidazo[4,5-b]pyridin-3-yl]benzyl}butane-1-sulfonamide] | – | IC50 [2]: 0.44 µM
7 | Nc1ncccc1-c1nc2ccc(-c3ccc(N4CCOCC4)cc3)nc2n1-c1ccc(C2(N)CCC2)cc1 [Example 465, 3-{3-[4-(1-aminocyclobutyl)phenyl]-5-(4-morpholin-4-ylphenyl)-3H-imidazo[4,5-b]pyridin-2-yl}pyridin-2-amine hydrochloride] | – | IC50 [3]: 0.0058 µM
8 | Nc1ncccc1-c1nc2cc(Br)cnc2n1-c1ccc(CNS(=O)(=O)C2CC2)cc1 [Example 168, N-{4-[2-(2-aminopyridin-3-yl)-6-bromo-3H-imidazo[4,5-b]pyridin-3-yl]benzyl}cyclopropanesulfonamide] | 0.17 µM | –
9 | Nc1ncccc1-c1nc2cc(Br)cnc2n1-c1ccc(CNS(=O)(=O)c2ccccc2Cl)cc1 [Example 147, N-{4-[2-(2-aminopyridin-3-yl)-6-bromo-3H-imidazo[4,5-b]pyridin-3-yl]benzyl}-2-chlorobenzenesulfonamide] | – | IC50 [2]: 0.44 µM
10 | Cn1ccc(S(=O)(=O)NCc2ccc(-n3c(-c4cccnc4N)nc4cccnc43)cc2)n1 [Example 109, hydrochloride] | – | IC50 [2]: 0.86 µM
11 | COc1cccc(C(=O)NCc2ccc(-n3c(-c4cccnc4N)nc4cccnc43)cc2)c1 [Example 77] | – | IC50 [2]: 0.417 µM
12 | Nc1ncccc1-c1nc2ccc(-c3cccc(N4CCCCC4)c3)nc2n1-c1ccc(C2(N)CCC2)cc1 [Example 431, 3-{3-[4-(1-aminocyclobutyl)phenyl]-5-(3-piperidin-1-ylphenyl)-3H-imidazo[4,5-b]pyridin-2-yl}pyridin-2-amine] | 0.018 µM | –
13 | COc1cc(OC)cc(-c2ccc3nc(-c4cccnc4N)n(-c4ccc(C5(N)CCC5)cc4)c3n2)c1 [Example 411, 3-{3-[4-(1-aminocyclobutyl)phenyl]-5-(3,5-dimethoxyphenyl)-3H-imidazo[4,5-b]pyridin-2-yl}pyridin-2-amine] | 0.0045 µM | –
14 | CC(=O)Nc1cccc(-c2ccc3nc(-c4cccnc4N)n(-c4ccc(C5(NC(=O)OC(C)(C)C)CCC5)cc4)c3n2)c1 [Example 340, tert-butyl (1-(4-(5-(3-acetamidophenyl)-2-(2-aminopyridin-3-yl)-3H-imidazo[4,5-b]pyridin-3-yl)phenyl)cyclobutyl)carbamate] | 0.35 µM | –
15 | Nc1ncccc1-c1nc2ccc(-c3cccc(N4CCCC4)c3)nc2n1-c1ccc(C2(N)CCC2)cc1 [Example 449, 3-{3-[4-(1-aminocyclobutyl)phenyl]-5-(3-pyrrolidin-1-ylphenyl)-3H-imidazo[4,5-b]pyridin-2-yl}pyridin-2-amine] | – | IC50 [3]: 0.0023 µM
16 | CCOC(=O)Cc1ccc(-n2c(-c3cccnc3N)nc3cccnc32)cc1 [Example 113] | – | IC50 [2]: 0.61 µM
17 | Nc1ncccc1-c1nc2cccnc2n1-c1ccc(CNS(=O)(=O)c2ccsc2)cc1 [Example 100] | – | IC50 [2]: 0.158 µM
18 | CC1=NN(c2ccc(C(=O)NCc3ccc(-n4c(-c5cccnc5N)nc5cccnc54)cc3)cc2)C(=O)C1 [Example 79] | – | IC50 [2]: 1.11 µM
19 | Nc1ncccc1-c1nc2ccc(-c3cccc(N4CCC4)c3)nc2n1-c1ccc(C2(N)CCC2)cc1 [Example 457, 3-{3-[4-(1-aminocyclobutyl)phenyl]-5-(3-azetidin-1-ylphenyl)-3H-imidazo[4,5-b]pyridin-2-yl}pyridin-2-amine] | – | IC50 [3]: 0.0093 µM
20 | CNc1ccccc1C(=O)NCc1ccc(-n2c(-c3cccnc3N)nc3cccnc32)cc1 [Example 57] | – | IC50 [2]: 1.52 µM
21 | CC(C)CS(=O)(=O)NCc1ccc(-n2c(-c3cccnc3N)nc3cc(Br)cnc32)cc1 [Example 152, N-{4-[2-(2-aminopyridin-3-yl)-6-bromo-3H-imidazo[4,5-b]pyridin-3-yl]benzyl}-2-methylpropane-1-sulfonamide] | – | IC50 [2]: 0.24 µM
22 | Nc1ncccc1-c1nc2ccc(-c3cccc(N4CCC(O)CC4)c3)nc2n1-c1ccc(C2(N)CCC2)cc1 [Example 462, 1-(3-{3-[4-(1-aminocyclobutyl)phenyl]-2-(2-aminopyridin-3-yl)-3H-imidazo[4,5-b]pyridin-5-yl}phenyl)piperidin-4-ol] | – | IC50 [3]: 0.01 µM
23 | Nc1ncccc1-c1nc2ccc(-c3cccc(N4CCOCC4=O)c3)nc2n1-c1ccc(C2(N)CCC2)cc1 [Example 466, 4-(3-{3-[4-(1-aminocyclobutyl)phenyl]-2-(2-aminopyridin-3-yl)-3H-imidazo[4,5-b]pyridin-5-yl}phenyl)morpholin-3-one hydrochloride] | – | IC50 [3]: 0.0035 µM

The next lines start with results.

Row | IC50 [1] | Compound | other results
24 | 0.17 µM | Cn1cccc1C(=O)NCc1ccc(-n2c(-c3cccnc3N)nc3cc(-c4cccnc4)cnc32)cc1 [Example 252, N-(4-(2-(2-aminopyridin-3-yl)-6-(pyridin-3-yl)-3H-imidazo[4,5-b]pyridin-3-yl)benzyl)-1-methyl-1H-pyrrole-2-carboxamide] | –
25 | 2.1 µM | Nc1ncccc1-c1nc2cc(C(F)(F)F)cnc2n1-c1ccc(CNC(=O)c2ccc(Br)cc2)cc1 [Example 187, N-{4-[2-(2-aminopyridin-3-yl)-6-(trifluoromethyl)-3H-imidazo[4,5-b]pyridin-3-yl]benzyl}-4-bromobenzamide] | –
26 | 0.13 µM | Nc1ncccc1-c1nc2ccc(-c3ccncc3)nc2n1-c1ccc(CNC(=O)c2ccccc2)cc1 [Example 235, N-(4-(2-(2-aminopyridin-3-yl)-5-(pyridin-4-yl)-3H-imidazo[4,5-b]pyridin-3-yl)benzyl)benzamide] | –
27 | 0.02 µM | Cc1cnc2c(c1)nc(-c1cccnc1N)n2-c1ccc(CNC(=O)c2ccc3nc(C)ccc3c2)cc1 [Example 231, N-(4-(2-(2-aminopyridin-3-yl)-6-methyl-3H-imidazo[4,5-b]pyridin-3-yl)benzyl)-2-methylquinoline-6-carboxamide] | –
28 | 0.36 µM | Nc1ncccc1-c1nc2ccc(-c3ccc(F)cc3)nc2n1-c1ccc(CNC(=O)c2cccc(F)c2)cc1 [Example 329, N-(4-(2-(2-aminopyridin-3-yl)-5-(4-fluorophenyl)-3H-imidazo[4,5-b]pyridin-3-yl)benzyl)-3-fluorobenzamide] | –
29 | 0.032 µM | CNC(=O)Cc1ccc(-n2c(-c3cccnc3N)nc3ccc(-c4cccc(NC(C)=O)c4)nc32)cc1 [Example 341, 2-(4-(5-(3-acetamidophenyl)-2-(2-aminopyridin-3-yl)-3H-imidazo[4,5-b]pyridin-3-yl)phenyl)-N-methylacetamide] | –
30 | 0.13 µM | COc1ccc(S(=O)(=O)NCc2ccc(-n3c(-c4cccnc4N)nc4cc(-c5cccnc5)cnc43)cc2)cc1 [Example 206, N-(4-(2-(2-aminopyridin-3-yl)-6-(pyridin-3-yl)-3H-imidazo[4,5-b]pyridin-3-yl)benzyl)-4-methoxybenzenesulfonamide] | –
31 | 0.016 µM | Nc1ncccc1-c1nc2cc(-c3ccc(C(=O)O)o3)cnc2n1-c1ccc(CNC(=O)c2ccccc2)cc1 [Example 240, 5-(2-(2-aminopyridin-3-yl)-3-(4-(benzamidomethyl)phenyl)-3H-imidazo[4,5-b]pyridin-6-yl)furan-2-carboxylic acid] | –
32 | 0.022 µM | CC(=O)Nc1ccc(NC(=O)Cc2ccc(-n3c(-c4cccnc4N)nc4cc(-c5cccnc5)cnc43)cc2)cc1 [Example 319, N-(4-acetamidophenyl)-2-(4-(2-(2-aminopyridin-3-yl)-6-(pyridin-3-yl)-3H-imidazo[4,5-b]pyridin-3-yl)phenyl)acetamide] | –
33 | 0.035 µM | Nc1ncccc1-c1nc2ccc(-c3ccco3)nc2n1-c1ccc(CNC(=O)c2cccc(F)c2)cc1 [Example 316, N-(4-(2-(2-aminopyridin-3-yl)-5-(furan-2-yl)-3H-imidazo[4,5-b]pyridin-3-yl)benzyl)-3-fluorobenzamide] | –
34 | 0.14 µM | CS(=O)(=O)NCc1ccc(-n2c(-c3cccnc3N)nc3cc(-c4cccnc4)cnc32)cc1 [Example 196, N-(4-(2-(2-aminopyridin-3-yl)-6-(pyridin-3-yl)-3H-imidazo[4,5-b]pyridin-3-yl)benzyl)methanesulfonamide] | –
35 | 1.5 µM | N#Cc1cccc(NC(=O)c2ccc(-n3c(-c4cccnc4N)nc4cccnc43)cc2)c1 [Example 183, 4-[2-(2-aminopyridin-3-yl)-3H-imidazo[4,5-b]pyridin-3-yl]-N-(3-cyanophenyl)benzamide] | –
36 | 0.022 µM | Cc1ccc2cc(C(=O)NCc3ccc(-n4c(-c5cccnc5N)nc5cc(-c6cccnc6)cnc54)cc3)ccc2n1 [Example 244, N-(4-(2-(2-aminopyridin-3-yl)-6-(pyridin-3-yl)-3H-imidazo[4,5-b]pyridin-3-yl)benzyl)-2-methylquinoline-6-carboxamide] | –
